Assay: In-use stability impurity analysis (HPLC) of pimavanserin 34 mg capsule contents in vehicles
Type: physicochemical
Details: for Impurity D / Impurity Unknown RRT 0.90 / Impurity Unknown RRT 0.99 / Impurity Unknown RRT 1.10 / Total Imp.: ambient
Procedure: Analytical HPLC Stability Study experiments (Example 1) were performed on Agilent 1200 Series, or equivalent; Waters XBridge C18 column, 5 μm 150×4.6 mm; mobile phase: Solvent A: 50 mM ammonium bicarbonate, pH 8.0; Solvent B: acetonitrile/methanol, 80:20 (v/v); Flow rate: 1 mL/min; Inj. Volume 20 μL; Autosampler Temp. 5° C.; column temperature: 40° C., detection UV at 210 nm; sample concentration (as free base) assay: 0.068 mg/mL, impurity: 0.68 mg/mL; standard concentration (as free base) 0.068 mg/mL; PLOQ Std. 0.05% of 0.68 mg/mL; SST solution, 1% of 0.68 mg/mL (impurities A, C, D, E, F, and G); diluent for standards 80/20 (v/v) ethanol/water; diluent for samples, ethanol; run time 40 min; gradient method: 0 min mobile phase A (90%) and mobile phase B (10%) to 30 min mobile phase A (0%), and mobile phase B (100%); then 30.1 min to 40 min mobile phase A (90%), mobile phase B (10%).
Samples for the assessment of the degradation products stability from solutions or mixtures of pimavanserin in vehicles were prepared as follows. Four samples (n=4) were prepared for each vehicle as follows.
For each sample, one capsule was weighed, and the content of each capsule was dropped into a 50 mL volumetric flask and the empty capsule shell was weighed and discarded. The specified amount of each vehicle was added as specified in Table 3, below.
The flasks were gently swirled to ensure the capsule contents were visually incorporated with the vehicle. The flasks were kept on the bench at ambient temperature for each time point: 2, 4, and 24 hours. Time 0 samples were processed immediately. At the specified time point a stir bar and approximately 45 mL of diluent were added to the flask. The solution was stirred vigorously for 2 hours, and the flask was left on the bench overnight. The next day the flasks were sonicated for approximately 30 minutes. The stir bar was removed and rinsed carefully with diluent into the flask, and the flask was diluted to volume with diluent and mixed well by inversion. An aliquot of each solution was centrifuged for 5 minutes at 10000 rpm. The supernatant was transferred to a HPLC vial, and injected for analysis.

## CC(C)COc1ccc(CNC(=O)N(Cc2ccc(F)cc2)C2CCN(C)CC2)cc1 [Pimavanserin, N-(4-Fluorophenylmethyl)-N-(1-methylpiperidin-4-yl)-N′-(4-(2-methylpropyloxy)phenylmethyl)carbamide]
Ensure 5 mL, T = 0
  Impurity D: 0.22 % w/w
  Impurity Unknown RRT 0.90: 0.08 % w/w
  Impurity Unknown RRT 0.99: 0.09 % w/w
  Impurity Unknown RRT 1.10: 0.06 % w/w
  Total Imp.: 0.45 % w/w
Ensure 5 mL, T = 2 h
  Impurity D: 0.20 % w/w
  Impurity Unknown RRT 0.90: 0.08 % w/w
  Impurity Unknown RRT 0.99: 0.10 % w/w
  Impurity Unknown RRT 1.10: 0.05 % w/w
  Total Imp.: 0.43 % w/w
Ensure 5 mL, T = 4 h
  Impurity D: 0.23 % w/w
  Impurity Unknown RRT 0.90: 0.08 % w/w
  Impurity Unknown RRT 0.99: 0.09 % w/w
  Impurity Unknown RRT 1.10: 0.06 % w/w
  Total Imp.: 0.46 % w/w
Ensure 5 mL, T = 24 h
  Impurity D: 0.23 % w/w
  Impurity Unknown RRT 0.90: 0.07 % w/w
  Impurity Unknown RRT 0.99: 0.10 % w/w
  Impurity Unknown RRT 1.10: 0.06 % w/w
  Total Imp.: 0.46 % w/w
Any vehicle, over 24 hours at ambient room temperature
  change in impurity profile: no significant change
Applesauce 5 g, T = 0
  Impurity D: 0.19 % w/w
  Impurity Unknown RRT 0.99: 0.09 % w/w
  Total Imp.: 0.28 % w/w
Applesauce 5 g, T = 2 h
  Impurity D: 0.21 % w/w
  Impurity Unknown RRT 0.99: 0.10 % w/w
  Total Imp.: 0.31 % w/w
Applesauce 5 g, T = 4 h
  Impurity D: 0.22 % w/w
  Impurity Unknown RRT 0.99: 0.10 % w/w
  Total Imp.: 0.32 % w/w
Applesauce 5 g, T = 24 h
  Impurity D: 0.22 % w/w
  Impurity Unknown RRT 0.99: 0.09 % w/w
  Total Imp.: 0.31 % w/w
Each vehicle, 0-24 h
  individual and total impurities across timepoints: consistent between all timepoints
Orange juice 5 mL, T = 0
  Impurity D: 0.17 % w/w
  Impurity Unknown RRT 0.99: 0.09 % w/w
  Total Imp.: 0.26 % w/w
Orange juice 5 mL, T = 2 h
  Impurity D: 0.17 % w/w
  Impurity Unknown RRT 0.99: 0.09 % w/w
  Total Imp.: 0.26 % w/w
Orange juice 5 mL, T = 4 h
  Impurity D: 0.17 % w/w
  Impurity Unknown RRT 0.99: 0.09 % w/w
  Total Imp.: 0.26 % w/w
Orange juice 5 mL, T = 24 h
  Impurity D: 0.17 % w/w
  Impurity Unknown RRT 0.99: 0.09 % w/w
  Total Imp.: 0.26 % w/w
Two impurities, samples extracted from vanilla Ensure, time 0
  additional unknown impurities: < 0.1%
Water 5 mL, T = 0
  Impurity D: 0.23 % w/w
  Impurity Unknown RRT 0.99: 0.10 % w/w
  Total Imp.: 0.33 % w/w
Water 5 mL, T = 2 h
  Impurity D: 0.24 % w/w
  Impurity Unknown RRT 0.99: 0.10 % w/w
  Total Imp.: 0.34 % w/w
Water 5 mL, T = 4 h
  Impurity D: 0.23 % w/w
  Impurity Unknown RRT 0.99: 0.10 % w/w
  Total Imp.: 0.33 % w/w
Water 5 mL, T = 24 h
  Impurity D: 0.25 % w/w
  Impurity Unknown RRT 0.99: 0.10 % w/w
  Total Imp.: 0.35 % w/w

Reference: patent US20220323429A1, “PIMAVANSERIN FOR TREATING NEURODEGENERATIVE DISEASES” (ACADIA Pharmaceuticals Inc., priority 2019, published 2022)
